We go through one substance from US20070249545A1, “DIHYDROFOLATE REDUCTASE INHIBITION BY EPIGALLOCATECHIN GALLATE COMPOUNDS” (priority 2004, published 2007).

In assay [1] the target is T1, recombinant human DHFR (rHDHFR) (Homo sapiens, UniProt P00374).
T1 sequence (P00374 1-187): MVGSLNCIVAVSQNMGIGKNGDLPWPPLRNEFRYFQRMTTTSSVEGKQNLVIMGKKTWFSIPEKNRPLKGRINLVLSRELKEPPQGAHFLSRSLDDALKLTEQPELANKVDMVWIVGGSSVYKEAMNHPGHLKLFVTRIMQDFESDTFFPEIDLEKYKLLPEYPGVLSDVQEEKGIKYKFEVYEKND
Description: Inhibition of human DHFR by tea catechins. Type of assay: biochemical.

A further assay deals with p16. Description: p16 methylation status in Jurkat T cells. Type of assay: cell-based, human. Conditions: EGCG 20 μM, 7-days treatment.
The next assay relates to NF-κB. Description: TNF-α-mediated activation of NF-κB (Western blot). As to conditions: 24 hours, then TNF-α, IκBα, phospho-IκBα, Akt. Type of assay: cell-based. As to the method: To check if the antifolate activity of EGCG is related to the suppression of activation of NF-κB, cells were grown in the presence of EGCG or MTX. After 24 hours, the cells were induced with TNF-α and the content of proteins related to NF-κB activation (IκBα, phospho-IκBα, Akt and phosphor-Akt) was checked by Western blot (FIG. 16A).

The subject of another assay is Caco-2. The experiment in a line: Growth of Caco-2 colon cancer cells. The format is cell-based, human. As to the method: To determine whether EGCG inhibits DHFR activity in vivo, two human cancer cell, (Caco-2 from colon cancer and Jurkat T a lymphoma cell line) were incubated with various concentrations of EGCG in a standard medium.
The target of the next assay is urokinase (Homo sapiens, UniProt P00749). Conditions: in vitro; cited from earlier work.
Another assay deals with T2, bovine liver DHFR (Bos taurus, UniProt P00376).
T2 construct: from tissue; host or cells: bovine liver
T2 sequence (P00376 1-187): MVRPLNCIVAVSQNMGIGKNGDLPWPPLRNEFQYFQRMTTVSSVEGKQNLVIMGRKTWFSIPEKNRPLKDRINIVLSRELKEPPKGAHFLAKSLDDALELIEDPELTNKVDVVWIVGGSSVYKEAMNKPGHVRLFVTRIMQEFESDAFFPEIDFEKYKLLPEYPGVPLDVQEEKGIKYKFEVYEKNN
The experiment in a line: Kinetic analysis of inhibition of bovine liver DHFR. Type of assay: biochemical. As to the method:
The activity of DHFR was determined at 25° C. by following the decrease of NADPH and DHF by absorbance measurements at 340 nm (ε=11,800 M^−1 cm^−1) by using a Perkin-Elmer Lambda-2 spectrophotometer with cuvettes of 1.0 cm light-path.
Experiments were performed at pH 7.58 and 25° C. in a buffer containing 2-(N-morpholino)ethanesulfonic acid (MES, 25 mM), sodium acetate (25 mM), tris(hydroxymethyl)aminomethane (Tris 50 mM), and NaCl (100 mM). To prevent the oxidation of catechins, the reaction mixture contained 1 mM ascorbic acid. The pH of the reaction was measured before and after of the experiment. The assays were started by the addition of enzyme. In the absence of the enzyme, the rate of change of absorbance was negligible. […]
Progress curves for the slow, tight-binding inhibition of bovine liver DHFR by EGCG were determined by continuously monitoring the disappearance of NADPH and DHF after initiation of the reaction by the addition of 3.3 nM enzyme. Reaction mixtures contained buffer, NADPH (100 μM), DHF (20 μM) and EGCG. Assuming that the concentration of free inhibitor is not substantially altered by the formation of an enzyme-NADPH-inhibitor complex, the progress curve for the inhibition in the presence of saturating NADPH is described by Eqn. (1): P=vst+(v0−vs)(1−exp(−k′t))/k′
where vs, v0 and k′ represent the steady-state velocity, initial velocity and apparent first-order rate constant, respectively.
The values of k′ at different EGCG concentrations were obtained by non-linear regression analysis of the progress curves. KI and KI* denote the respective dissociation constants for the initial and equilibrium binding of inhibitors to the enzyme-NADPH complex (FIG. 5).

The subject of the next assay is S. maltophilia strain 1. Description: Time kill assay for bactericidal and bacteriostatic effects. The format is cell-based, Stenotrophomonas maltophilia. As to the method: A time kill assay was performed for strain 1. Glass tubes containing cation-adjusted Mueller-Hinton broth, with doubling antibiotic concentration were inoculated with 5×10^5 CFU/ml and were incubated at 37° C. for 24 h. Antibiotic concentrations were chosen to comprise three doubling dilutions above and two doubling dilutions below the broth dilution MIC. Inoculation of each serially diluted antibiotic tube was performed following NCCLS guidelines for broth dilution method. Viability counts of antibiotic-containing suspensions were carried out at 0, 3, 6, 12 and 24 h, by plating 10 μl aliquots of 10-fold dilutions from each tube in sterile saline onto Columbia agar supplemented with 5% of defibrinated sheep blood. The plates used to recover organisms were incubated for up to 24 h. The lower limit of sensibility of colony counts was 100 CFU/ml. Time kill assay results were analyzed by determining changes in the log10 CFU/ml compared to the counts at zero-time for the six different concentrations of EGCG. Bactericidal effect was defined at the lowest concentration that reduced the original inoculums by ≧3 log10 CFU/ml after a period of time and bacteriostatic if the inoculums was reduced by 0 to 3 log10 CFU/ml.

Read-outs that look alike come from different tables or passages of the source.

As for (−)-epigallocatechin gallate [EGCG], in assay [1], the Ki came out at 2000 nM and the “inhibition of rHDHFR activity” value is given as “potent inhibitors”. Further, in the assay with p16, the p16 methylation pattern result is given as “changed from methylated to unmethylated”. In addition, the “effects on proteins related to NF-κB activation, with folinic acid” value in the assay with NF-κB is “highly reversed by folinic acid”. Moreover, in the assay on Caco-2, the apoptosis result is reported as “induction of apoptosis”; the cell cycle effect entry is “G0/G1 phase arrest”; the “effects in HT medium and in the presence of folinic acid or thymine” value is “highly attenuated”. Also, the IC50 with Caco-2 (standard medium, read-out: IC50 of cell growth) was 30 µM. Also, the “concentration needed to inhibit urokinase activity” value on urokinase was 2 to 10 mM. At bovine liver DHFR, the k5 is 0.13 min⁻¹, the k5/k6 was 32.5 ratio, the k6 was determined as 0.004 min⁻¹ and the type of inhibition result is on record as “slow tight-binding inhibitor”. Moreover, the Ki at bovine liver DHFR (equilibrium binding to enzyme-NADPH complex, read-out: KI*) amounted to 2.9 nM. In addition, the Ki at bovine liver DHFR (initial binding to enzyme-NADPH complex, pH 7.58, 25° C., read-out: KI) was 109 nM. Further, in the assay on S. maltophilia strain 1 (64 μg/ml, after 12 h incubation), the regrowth entry was “Regrowth was observed”. For the same substance, in the assay with S. maltophilia strain 1 (at 12 h), the “concentration with bactericidal effect” value is 4 times the MIC and the “concentration with bacteriostatic effect” value was 2 times the MIC.
